The experiment addresses S-adenosylmethionine synthase isoform type-2 (Rattus norvegicus, UniProt P18298). The experiment is described as follows: Inhibition Assay. As to conditions: pH 7.5; 37 °C. How it is done: AdoMet synthetase activity was measured by a radioactive assay using (14C-methyl)-L-methionine as described by Sullivan and Hoffman with minor modification to give better efficiency in the separation of labelled residual methionine and AdoMet formed.
Sequence of S-adenosylmethionine synthase isoform type-2 (P18298 whole entry, canonical isoform): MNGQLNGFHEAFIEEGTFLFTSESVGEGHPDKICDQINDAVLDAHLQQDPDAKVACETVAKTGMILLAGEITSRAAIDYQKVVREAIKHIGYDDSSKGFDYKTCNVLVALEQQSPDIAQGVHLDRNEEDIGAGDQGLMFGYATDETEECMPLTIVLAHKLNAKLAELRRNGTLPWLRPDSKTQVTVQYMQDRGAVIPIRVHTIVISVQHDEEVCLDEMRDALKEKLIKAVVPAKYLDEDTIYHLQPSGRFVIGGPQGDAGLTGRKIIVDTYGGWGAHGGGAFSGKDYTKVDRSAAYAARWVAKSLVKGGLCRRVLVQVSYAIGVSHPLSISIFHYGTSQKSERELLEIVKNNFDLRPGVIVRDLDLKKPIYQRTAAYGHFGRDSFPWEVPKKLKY
As to `C[C@H]1O[C@H]1C[C@H](N)C(=O)O` [Epoxy analogue, I(b)], the IC50 turned out to be 100 µM and the Ki is 61 µM.

Turning to `C[C@H]1S[C@@H]1C[C@H](N)C(=O)O` [Epithioamino acid analogue, II(b)], the midpoint of inhibition, the IC50, lay at 300 µM and the affinity, expressed as Ki, was 140 µM.

The compound `N[C@@H](C[C@H]1CO1)C(=O)O` [Epoxy analogue, I(a)] gave a 50% inhibitory concentration (IC50) of 50 µM and an inhibitory constant (Ki) of 7 µM.

The compound `C[C@@H]1S[C@@H]1C[C@H](N)C(=O)O` [Epithioamino acid analogue, II(c)] had an IC50 of 400 µM and an inhibitory constant (Ki) of 140 µM.

For the compound `N[C@@H](C[C@@H]1CS1)C(=O)O` [Epithioamino acid analogue, II(a)], the IC50 worked out at 140 µM and the Ki was found to be 100 µM.

Compound `C[C@@H]1O[C@H]1C[C@H](N)C(=O)O` [Epoxy analogue, I(c)] registered a half-inhibitory concentration (IC50) of 110 µM and a Ki of 105 µM.
